Patent US20230150929A1, “SELECTIVE NON-CYCLIC NUCLEOTIDE ACTIVATORS FOR THE CAMP SENSOR EPAC1” (The Board of Regents of The University of Texas System, priority 2020, published 2023)

Columns and labels:
EPAC1-CNBD = target: T1, EPAC1-CNBD (Homo sapiens, UniProt O95398); test: 8-NBD-cAMP competition binding assay, EPAC1-CNBD; conditions: for EPAC1 binding potency / affinity in words: SAR comment on RFI, mostly relative to 3 or 9a; for RFI (%) (relative fluorescence intensity), Table 4: compound 10 µM, EPAC1-CNBD 0.8 µM, 8-NBD-cAMP 62.5 nM, mean ± SEM, lower RFI = stronger binding; for IC50: read-out: IC50 for the EPAC1-CNBD, dose-response, FIG. 3; for IC50 values as EPAC1 binders (in words): summary statement
T1 sequence (O95398 169-318 isoform O95398-3): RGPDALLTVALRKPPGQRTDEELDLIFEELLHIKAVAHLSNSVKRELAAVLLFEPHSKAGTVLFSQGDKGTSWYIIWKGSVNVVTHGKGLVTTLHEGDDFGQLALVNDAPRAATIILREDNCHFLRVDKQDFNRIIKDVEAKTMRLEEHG

over 40 GPCR targets = test: Counter screening over a panel of GPCR targets; format: binding; conditions: panel of over 40 GPCR proteins
EPAC1 = target: T2, EPAC1 (Homo sapiens, UniProt O95398); test: Protein stability of EPAC1 in cells following long-term exposure; format: cell-based; set-up: expressed in transfected cells; host or cells: U2OS cells (from Professor Holger Rehmann, University of Utrecht); conditions: compared with I942
T2 sequence (O95398 1-923): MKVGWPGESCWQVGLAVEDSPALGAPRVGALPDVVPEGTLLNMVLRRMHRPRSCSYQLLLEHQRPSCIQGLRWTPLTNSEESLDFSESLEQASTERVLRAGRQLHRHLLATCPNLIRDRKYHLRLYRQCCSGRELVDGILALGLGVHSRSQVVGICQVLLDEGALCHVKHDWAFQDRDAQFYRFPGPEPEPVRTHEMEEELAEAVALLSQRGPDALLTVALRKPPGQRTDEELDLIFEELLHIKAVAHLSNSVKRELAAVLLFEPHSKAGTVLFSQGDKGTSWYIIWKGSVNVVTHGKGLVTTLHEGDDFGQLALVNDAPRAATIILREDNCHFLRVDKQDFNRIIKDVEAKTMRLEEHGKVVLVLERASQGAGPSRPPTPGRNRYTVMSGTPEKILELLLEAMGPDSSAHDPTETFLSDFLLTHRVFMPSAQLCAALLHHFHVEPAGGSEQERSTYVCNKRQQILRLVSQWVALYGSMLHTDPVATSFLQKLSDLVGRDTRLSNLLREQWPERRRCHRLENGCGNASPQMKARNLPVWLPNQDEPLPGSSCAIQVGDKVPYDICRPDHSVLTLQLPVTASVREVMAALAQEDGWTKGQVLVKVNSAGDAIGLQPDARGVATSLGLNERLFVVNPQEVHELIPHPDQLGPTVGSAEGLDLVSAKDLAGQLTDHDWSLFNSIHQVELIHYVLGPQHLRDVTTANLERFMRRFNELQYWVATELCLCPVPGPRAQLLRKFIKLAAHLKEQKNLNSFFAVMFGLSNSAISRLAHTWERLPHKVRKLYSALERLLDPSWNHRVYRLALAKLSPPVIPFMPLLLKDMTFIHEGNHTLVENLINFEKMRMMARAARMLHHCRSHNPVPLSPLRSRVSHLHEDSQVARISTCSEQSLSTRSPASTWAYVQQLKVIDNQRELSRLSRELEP

Row | EPAC1 binding potency / affinity in words (EPAC1-CNBD) | RFI (%) (relative fluorescence intensity), Table 4 (EPAC1-CNBD) | IC50 (EPAC1-CNBD) | IC50 values as EPAC1 binders (in words) (EPAC1-CNBD) | Structure (SMILES) | off-target effects towards GPCR proteins (over 40 GPCR targets) | tolerability in terms of protein stability of EPAC1 in cells (EPAC1)
1 | much more potent | 23 ± 4% | 4800 nM | low micromolar to sub-micromolar | COc1ccc(S(=O)(=O)NC(=O)COc2ccc3ccccc3c2)c(OC)c1 [Compound 25g, N-((2,4-Dimethoxyphenyl)sulfonyl)-2-(naphthalen-2-yloxy)acetamide] | – | –
2 | – | 7 ± 1% | 900 nM | low micromolar to sub-micromolar | COc1ccc2ccc(OCC(=O)NS(=O)(=O)c3ccc(N)cc3OC)cc2c1 [Compound 25n, N-((4-Amino-2-methoxyphenyl)sulfonyl)-2-((7-methoxynaphthalen-2-yl)oxy)acetamide] | none of them displays the potential off-target effects | better tolerated
3 | significantly enhanced binding potency | 14 ± 3% | 2200 nM | low micromolar to sub-micromolar | COc1ccc2ccc(OCC(=O)NS(=O)(=O)c3ccc4ccccc4c3)cc2c1 [Compound 25q, 2-((7-Methoxynaphthalen-2-yl)oxy)-N-(naphthalen-2-ylsulfonyl)acetamide] | none of them displays the potential off-target effects | –
